Data reported in the NIST ThermoML archive (doi:10.1016/j.jct.2018.12.006).

Assay: molar heat capacity at constant pressure
Conditions: Crystal, Small (less than 1 g) adiabatic calorimetry

C[N+](C)(C)C[C@H](O)CC(=O)[O-] [(R)-3-hydroxy-4-(trimethylammonio)butanoate]
Conditions | molar heat capacity at constant pressure [J/K/mol]
5 K, 101.33 kPa | 0.29
6.08 K, 100 kPa | 0.53
6.27 K, 100 kPa | 0.571
6.41 K, 100 kPa | 0.622
6.56 K, 100 kPa | 0.669
6.69 K, 100 kPa | 0.727
6.83 K, 100 kPa | 0.774
6.95 K, 100 kPa | 0.787
7.08 K, 100 kPa | 0.832
7.19 K, 100 kPa | 0.851
7.48 K, 100 kPa | 0.985
7.82 K, 100 kPa | 1.107
8.18 K, 100 kPa | 1.278
8.52 K, 100 kPa | 1.441
8.75 K, 100 kPa | 1.53
9.06 K, 100 kPa | 1.689
9.34 K, 100 kPa | 1.836
9.62 K, 100 kPa | 2.018
9.93 K, 100 kPa | 2.207
10 K, 101.33 kPa | 2.25
10.24 K, 100 kPa | 2.402
10.56 K, 100 kPa | 2.616
10.88 K, 100 kPa | 2.869
11.21 K, 100 kPa | 3.127
11.62 K, 100 kPa | 3.417
11.9 K, 100 kPa | 3.675
12.69 K, 100 kPa | 4.369
13.96 K, 100 kPa | 5.657
15 K, 101.33 kPa | 6.89
15.22 K, 100 kPa | 7.205
16.5 K, 100 kPa | 8.836
17.79 K, 100 kPa | 10.57
19.1 K, 100 kPa | 12.27
20 K, 101.33 kPa | 13.41
20.43 K, 100 kPa | 13.99
22.35 K, 100 kPa | 16.18
24.86 K, 100 kPa | 19.02
25 K, 101.33 kPa | 19.34
27.27 K, 100 kPa | 21.98
29.7 K, 100 kPa | 24.73
30 K, 101.33 kPa | 25.01
32.15 K, 100 kPa | 27.39
34.61 K, 100 kPa | 30.12
35 K, 101.33 kPa | 30.61
37.06 K, 100 kPa | 32.92
39.52 K, 100 kPa | 35.77
40 K, 101.33 kPa | 36.27
41.98 K, 100 kPa | 38.6
44.45 K, 100 kPa | 41.3
45 K, 101.33 kPa | 41.94
46.92 K, 100 kPa | 43.9
49.4 K, 100 kPa | 46.7
50 K, 101.33 kPa | 47.51
51.56 K, 100 kPa | 49.36
53.43 K, 100 kPa | 51.37
55.31 K, 100 kPa | 53.34
57.23 K, 100 kPa | 55.32
59.08 K, 100 kPa | 57.13
60 K, 101.33 kPa | 57.97
60.96 K, 100 kPa | 58.68
62.84 K, 100 kPa | 60.64
64.71 K, 100 kPa | 62.32
66.57 K, 100 kPa | 64.28
68.43 K, 100 kPa | 65.98
70 K, 101.33 kPa | 67.35
70.29 K, 100 kPa | 67.73
72.16 K, 100 kPa | 69.2
74.04 K, 100 kPa | 70.9
75.9 K, 100 kPa | 72.29
77.76 K, 100 kPa | 74.17
79.61 K, 100 kPa | 75.69
80 K, 101.33 kPa | 75.9
81.77 K, 100 kPa | 77.54
84.24 K, 100 kPa | 79.31
84.82 K, 100 kPa | 79.43
86.69 K, 100 kPa | 81.13
88.65 K, 100 kPa | 82.96
90 K, 101.33 kPa | 83.98
92.22 K, 100 kPa | 85.77
95.79 K, 100 kPa | 88.51
99.36 K, 100 kPa | 91.34
100 K, 101.33 kPa | 91.81
102.92 K, 100 kPa | 94.28
106.48 K, 100 kPa | 96.97
110 K, 101.33 kPa | 99.54
110.02 K, 100 kPa | 99.66
113.57 K, 100 kPa | 102.4
117.1 K, 100 kPa | 105
120 K, 101.33 kPa | 107.5
120.63 K, 100 kPa | 107.7
124.16 K, 100 kPa | 110.4
127.68 K, 100 kPa | 113
130 K, 101.33 kPa | 114.7
131.19 K, 100 kPa | 115.4
